The source of these data is patent publication US20180049996A1, “THERAPEUTIC AGENT FOR CHRONIC RESPIRATORY DISEASE AND COMPOSITION FOR INHIBITING CARDIAC FIBROSIS” (NIPPON HYPOX LABORATORIES INCORPORATED, priority 2015, published 2018).

In one assay the test system is sputum excretion. Nature of the assay: Sputum excretion action (phenol red excretion from trachea sections, method of Engler et al.). It is filed as in vivo, male ICR mice. As to conditions: relative to negative control. The method, then: The hydroquinone derivative of the present invention was orally administered to 8 week old male ICR mice in a single dose, and the sputum excretion action was evaluated according to the method of Engler et al. (Engler H, Szelenyi I, J.Pharmacol. Moth. 11, 151-157, 1984).
Specifically, the test was conducted as follows. The test material was orally administered to the mice in the control group and the test groups, i.e., an aqueous solution of 2% gum arabic was administered to the mice in the negative control group, and 2,3,5-trimethylhydroquinone-1-hexyl ether (HTHQ), the test substance, was orally administered to the mice in the HTHQ-administered groups at 100 mg/kg body weight, 200 mg/kg body weight and 400 mg/kg body weight, respectively. Ambroxol (a product from Sigma-Aldrich) was orally administered to the mice in the ambroxol administered group at 250 mg/kg body weight. Here, ambroxol is a substance having expectoration action and has been selected as a positive control substance. 30 minutes after the oral administration of the test material, saline in which phenol red (a product from Sigma-Aldrich) was dissolved at a concentration of 0.05 g/mL was intraperitoneally administered at 15 mL/kg. Then, 30 minutes after the administration of phenol red, the mice were euthanized by inhalation of carbon dioxide, and the tracheae were extirpated. Given sites of the extirpated tracheae were cut into sections of fixed size to obtain trachea sections. The obtained trachea sections were added to centrifugation tubes, and 1 mL of saline was added there, and the mixture was sonicated using a ultrasonic washing machine for 15 minutes. After the centrifugation of 5 minutes at 10000 rpm, 0.5 mL of a upper layer solution was dispensed to the centrifugation tubes and 0.05 mL of 1 N sodium hydroxide was added to the tubes. After stirring with a vortex mixer, 0.2 mL of a sample was dispensed to a 96 well plate, and absorbance was measured at 546 nm using a micro plate reader (a product from BioTek Instruments, Inc). The amounts of phenol red excreted from the trachea sections of the mice in the control group and test groups were calculated by extrapolating the measured absorbance to the standard curve based on the absorbance of phenol red reference standard ([…], 2.3 and 1.2 ng/mL). The amounts of phenol red excreted from the trachea sections were substituted in the following formula to calculate the sputum excretion ability of the test material. The formula to calculate the sputum excretion ability is as follows: “sputum excretion ability(%)={(A/B)−1}×100” wherein A is the amounts of phenol red of the test material administered groups (an average) and B is the amount of phenol red of the negative control group (an average).

Assay [1] deals with Myocardial Disorder Induced by Doxorubicin. As to the kind of experiment: Histopathologic examination of the hearts (light microscope), myocardial disorder induced by doxorubicin. It is filed as in vivo, female SD rats. As to conditions: for Severity score: Cell infiltration in interstitial tissue / Severity score: Degeneration of myocardial cells / Severity score: Loss and disorganization of myocardial fibers / Severity score: Loss of intercalated discs / Severity score: Loss of striations / Severity score: Vacuolation of myocardial fibers: Test group 2: doxorubicin 13 mg/kg + HTHQ 50 mg/kg; for lesions of cardiac tissue (light microscope): Test group 2: doxorubicin + HTHQ 50 mg/kg, compared to test group 1. Here is the method:
Doxorubicin is used to produce disease-model animals of cardiomyopathy. The doxorubicin and 2,3,5-trimethylhydroquinone-1-hexyl ether (HTHQ) as the hydroquinone derivative represented by the general formula (1) described above of the present invention were simultaneously administered to female SD rats of 4 week old after birth to examine the effect of the action. The test groups consisted of the control group to which sterile saline was administered; test group 1 to which doxorubicin (13 mg/kg body weight) alone was administered; test group 2 to which doxorubicin (13 mg/kg body weight) and HTHQ (50 mg/kg body weight) were administered in combination; and test group 3 to which doxorubicin (13 mg/kg body weight), HTHQ (50 mg/kg body weight) and recombinant human erythropoietin (400 IU/kg body weight) were administered in combination. […] The test group 3 is used to confirm the presence or absence of the inhibitory effect brought about by combining HTHQ and rHuEPO on myocardial disorder.
Doxorubicin was orally administered in a single dose to the rats in test groups 1 to 3. 2,3,5-trimethylhydroquinone-1-hexyl ether (HTHQ) was orally administered to the rats in test groups 2 and 3 twice in total: 3 days before the administration of doxorubicin and on the day of the administration. Recombinant human erythropoietin was daily administered to the rats in test group 3 starting from 3 days before the administration of doxorubicin by intravenous injection. The number of animals in each group was 16. 8 animals of each group were sacrificed after collecting blood on day 7 and 14 after the administration of doxorubicin, and the autopsy of the hearts, the calculation of the relative weights of the hearts, the histopathologic examination of the hearts and the hematological examination were conducted.
“−” indicates “not found”, “+” indicates “mild”, “++” indicates “moderate”, and “+++” indicates “severe” in severity scores of the table.

In the assay with sputum excretion (HTHQ 100 mg/kg oral single dose), `CCCCCCOc1cc(C)c(O)c(C)c1C` [HTHQ, 2,3,5-trimethylhydroquinone-1-hexyl ether] showed a sputum excretion ability of 24.6%. Moreover, the sputum excretion ability in the assay on sputum excretion (HTHQ 200 mg/kg oral single dose, significant increase) worked out at 30.0%. In the assay with sputum excretion (HTHQ 400 mg/kg oral single dose, significant increase), this molecule displayed a sputum excretion ability of 36.2%. In assay [1] (Day 7 after administration), the “Severity score: Cell infiltration in interstitial tissue” value is “−”; the “Severity score: Degeneration of myocardial cells” value was “+”; the “Severity score: Loss and disorganization of myocardial fibers” value is reported as “+”; the “Severity score: Loss of intercalated discs” value was “+”. Further, in assay [1] (Day 7 after administration), the “Severity score: Loss of striations” value is on record as “+” and the “Severity score: Vacuolation of myocardial fibers” value was “−”. Further, in assay [1] (Day 14 after administration), the “Severity score: Cell infiltration in interstitial tissue” value was “−”; the “Severity score: Degeneration of myocardial cells” value is “+”; the “Severity score: Loss and disorganization of myocardial fibers” value was “+”; the “Severity score: Loss of intercalated discs” value is reported as “+”. In assay [1] (Day 14 after administration), the “Severity score: Loss of striations” value is on record as “+” and the “Severity score: Vacuolation of myocardial fibers” value is listed as “+”. The “lesions of cardiac tissue (light microscope)” value in assay [1] (day 7) is “alleviated”. Further, the “lesions of cardiac tissue (light microscope)” value in assay [1] (day 14) is recorded as “also alleviated”.
